Calls of active or inactive are those of the source. The rule behind the calls is not given here.
How the values were obtained:
[1] = biological target: Replicase polyprotein 1ab (Severe acute respiratory syndrome coronavirus 2, UniProt P0DTD1); assay: Inhibition of SARS-CoV-2 MPro using Dabcyl-KTSAVLQSGFRKME-Edans as substrate assessed as inhibition constant measured for 10 mins by FRET assay
Procathepsin L [2] = biological target: T1, Procathepsin L (Homo sapiens, UniProt P07711); assay: Inhibition of human Cathepsin L using Cbz-Phe-Arg-AMC as substrate assessed as inhibition constant measured for 10 mins by fluorescence assay
Target sequence in this assay (P07711 whole entry): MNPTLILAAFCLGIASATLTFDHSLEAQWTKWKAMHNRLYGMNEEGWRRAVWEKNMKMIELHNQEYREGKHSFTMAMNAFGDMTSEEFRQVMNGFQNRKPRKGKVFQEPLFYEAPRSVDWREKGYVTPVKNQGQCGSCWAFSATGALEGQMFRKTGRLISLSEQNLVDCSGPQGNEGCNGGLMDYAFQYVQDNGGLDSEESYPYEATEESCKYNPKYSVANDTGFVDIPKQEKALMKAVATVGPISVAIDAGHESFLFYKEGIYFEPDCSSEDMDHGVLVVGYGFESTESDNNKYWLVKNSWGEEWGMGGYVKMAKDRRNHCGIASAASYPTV

Cathepsin B = Cathepsin B (Homo sapiens, UniProt P07858); assay: Inhibition of human Cathepsin B using Cbz-Phe-Arg-7-amino-4-methylcoumarin as substrate assessed as inhibition constant measured for 10 mins by fluorescence assay
[3] = biological target: Replicase polyprotein 1ab (Severe acute respiratory syndrome coronavirus 2) (UniProt P0DTD1); assay: Inhibition of SARS-CoV-2 PLpro using Z-RLRGG-AMC acetate as substrate at 100 uM measured for 10 mins by fluorescence assay
[4] = biological target: Genome polyprotein (dengue virus type 2) (UniProt P29990); assay: Inhibition of Dengue virus NS2B-NS3 protease Boc-GRR-AMC as substrate at 100 uM measured for 10 mins by fluorescence assay
[5] = biological target: Replicase polyprotein 1ab (Severe acute respiratory syndrome coronavirus 2) (UniProt P0DTD1); assay: Covalent irreversible inhibition of SARS-CoV-2 MPro using Dabcyl-KTSAVLQSGFRKME-Edans as substrate assessed as reduction in enzyme recovery at 5 fold IC50 preincubated for 60 mins followed by dilution to 1 fold IC50 and substrate addition by fluorescence based assay
Procathepsin L [6] = biological target: T1, Procathepsin L; assay: Covalent irreversible inhibition of human Cathepsin L using Cbz-Phe-Arg-AMC as substrate assessed as reduction in enzyme recovery at 5 fold IC50 preincubated for 60 mins followed by dilution to 1 fold IC50 and substrate addition by fluorescence based assay
Target sequence in this assay (P07711 114-333 limits assumed): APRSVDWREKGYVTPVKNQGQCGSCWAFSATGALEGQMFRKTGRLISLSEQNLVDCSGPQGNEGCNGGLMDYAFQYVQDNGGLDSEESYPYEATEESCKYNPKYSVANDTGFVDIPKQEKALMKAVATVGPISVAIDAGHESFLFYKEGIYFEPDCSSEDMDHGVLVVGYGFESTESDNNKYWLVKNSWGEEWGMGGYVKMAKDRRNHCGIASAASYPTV

[7] = biological target: Replicase polyprotein 1ab (Severe acute respiratory syndrome coronavirus 2) (UniProt P0DTD1); assay: Covalent irreversible inhibition of SARS-CoV-2 MPro using Dabcyl-KTSAVLQSGFRKME-Edans as substrate assessed as reduction in enzyme recovery at 10 fold IC50 preincubated for 60 mins followed by dialysis for 25 hrs further incubated with substrate and measured over 10 mins by fluorescence based assay; conditions: time 1570.0 min
Huh-7 = assay type: toxicity, cell-based; conditions: human, huh-7, 24 h

| Structure (SMILES) | Ki [1] [µM] | Ki (Procathepsin L [2]) [µM] | Ki (Cathepsin B) [µM] | inhibition [3] | inhibition [4] | inhibition [5] | inhibition (Procathepsin L [6]) | inhibition [7] | CC50 (Huh-7) [µM] |
| --- | --- | --- | --- | --- | --- | --- | --- | --- | --- |
| CC(=O)/C=C/[C@H](C[C@@H]1CCNC1=O)NC(=O)[C@H](CC1CC1)NC(=O)OCc1ccccc1 | 0.252 | 3.38 | 7.88 | inactive | inactive | Active | Active | Active | 100 |
| CC(=O)/C=C/[C@H](C[C@@H]1CCNC1=O)NC(=O)[C@H](CC(C)C)NC(=O)OCc1ccccc1 | 0.386 | – | – | – | – | – | – | – | – |
| CCCC[C@H](NC(=O)OCc1ccccc1)C(=O)N[C@H](/C=C/C(C)=O)C[C@@H]1CCNC1=O | 0.26 | 1.92 | 11.1 | inactive | inactive | Active | Active | – | 60.9 |
| CC(=O)/C=C/[C@H](C[C@@H]1CCNC1=O)NC(=O)[C@H](CC(C)(C)C)NC(=O)OCc1ccccc1 | 0.416 | – | – | – | – | – | – | – | – |
| CCC[C@H](NC(=O)OCc1ccccc1)C(=O)N[C@H](/C=C/C(C)=O)C[C@@H]1CCNC1=O | 1.77 | – | – | – | – | – | – | – | – |
| CC(=O)/C=C/[C@H](C[C@@H]1CCNC1=O)NC(=O)[C@H](CC1CCCCC1)NC(=O)OCc1ccccc1 | 0.184 | 0.252 | 14.4 | inactive | inactive | Active | Active | Active | 14.5 |
